# Molecular target: T1, Protein deacetylase HDAC6 (Homo sapiens) (UniProt Q9UBN7)
# T1 sequence (whole entry): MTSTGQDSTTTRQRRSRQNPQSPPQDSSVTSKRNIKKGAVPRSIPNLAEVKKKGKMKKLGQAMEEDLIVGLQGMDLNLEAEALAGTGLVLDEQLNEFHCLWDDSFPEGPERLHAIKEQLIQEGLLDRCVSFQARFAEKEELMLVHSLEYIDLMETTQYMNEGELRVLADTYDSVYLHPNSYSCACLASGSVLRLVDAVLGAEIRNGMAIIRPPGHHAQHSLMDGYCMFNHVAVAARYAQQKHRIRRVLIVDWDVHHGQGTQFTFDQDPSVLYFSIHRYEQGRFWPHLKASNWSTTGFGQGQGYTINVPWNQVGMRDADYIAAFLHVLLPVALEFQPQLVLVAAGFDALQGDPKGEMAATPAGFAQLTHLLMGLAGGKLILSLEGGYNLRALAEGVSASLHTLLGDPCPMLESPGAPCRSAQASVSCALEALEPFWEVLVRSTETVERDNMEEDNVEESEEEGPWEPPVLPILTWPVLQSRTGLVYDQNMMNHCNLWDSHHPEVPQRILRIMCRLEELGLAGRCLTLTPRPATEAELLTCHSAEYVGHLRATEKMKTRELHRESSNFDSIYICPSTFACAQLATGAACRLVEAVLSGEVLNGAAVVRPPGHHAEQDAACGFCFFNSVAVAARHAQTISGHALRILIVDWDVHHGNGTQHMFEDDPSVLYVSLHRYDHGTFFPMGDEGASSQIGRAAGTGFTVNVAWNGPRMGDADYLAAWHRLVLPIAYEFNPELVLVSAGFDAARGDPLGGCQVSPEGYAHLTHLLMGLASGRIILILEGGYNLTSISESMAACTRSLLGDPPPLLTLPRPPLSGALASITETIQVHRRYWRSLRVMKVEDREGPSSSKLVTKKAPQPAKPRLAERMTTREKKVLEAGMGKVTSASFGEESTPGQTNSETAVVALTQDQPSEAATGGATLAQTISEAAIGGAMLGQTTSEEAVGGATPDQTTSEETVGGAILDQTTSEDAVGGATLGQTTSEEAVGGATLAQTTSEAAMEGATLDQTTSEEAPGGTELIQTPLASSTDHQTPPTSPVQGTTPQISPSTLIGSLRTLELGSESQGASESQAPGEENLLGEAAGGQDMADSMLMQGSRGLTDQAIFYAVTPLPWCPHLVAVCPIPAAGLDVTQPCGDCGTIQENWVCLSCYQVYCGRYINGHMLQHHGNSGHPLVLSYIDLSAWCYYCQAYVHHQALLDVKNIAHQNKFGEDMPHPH
# Conditions: at 10 µM
row,SMILES,inhibition [%]
1,Cc1c(-c2ccc(O)cc2)n(Cc2ccc(OCCN3CCCCCC3)cc2)c2ccc(O)cc12,97.7
2,C/C(=N\NC(=N)N)c1cc(NC(=O)CCCCCCCCC(=O)Nc2cc(/C(C)=N/NC(=N)N)cc(/C(C)=N/NC(=N)N)c2)cc(/C(C)=N/NC(=N)N)c1,57.5
3,Nc1cc2c3ccccc3ccc2c2ccccc12,24.2
4,CN(Cc1ccccc1)C(=O)[C@H](Cc1ccc2ccccc2c1)NC(=O)[C@@H]1C[C@@H](O)CN1C(=O)c1cn(C)c2ccccc12,6.39
5,C=CC(C)(C)c1cc(/C=C/C(=O)c2ccc(O)cc2)c(OC)cc1O,52.1
6,Cc1[nH]c(/C=C2\C(=O)Nc3cc(-c4ccccc4)ccc32)c(C)c1CCC(=O)O,90.4
7,c1ccc(CCNc2nc(-c3ccccc3)cs2)cc1,96.5
8,c1ccc2c(c1)Nc1ccccc1S2,71.8
9,COc1ccc(C2C(=O)c3ccccc3C2=O)cc1,99.8
10,O=C(/C=C/c1ccc2c(c1)OCO2)N1CCCCC1,89.8
11,O=C(O)Cc1ccc2c(c1)C(=O)c1ccccc1CO2,64.3
12,COc1cc(OC)cc(-c2ccc3c(-c4ccc(F)cc4)n[nH]c3n2)c1,47.1
13,CN(C)CC/C=C1\c2ccccc2Sc2ccc(Cl)cc21,94.5
14,c1ccc(-c2cnn3cc(-c4ccc(OCCN5CCOCC5)cc4)cnc23)cc1,106
15,CCCCOC(=O)c1ccc(O)cc1,81.3
16,CCC(=O)NO,37.4
17,O=C(Nc1ccc(Br)cc1)c1cc(Br)cc(Br)c1O,30.8
18,CC(C)Oc1ccc2c(=O)c3cc(C(=O)O)ccc3oc2c1,64.7
19,CC(C)c1ccc2oc3nc(N)c(C(=O)O)cc3c(=O)c2c1,108
20,COc1ccc(-c2cc(=O)c3c(O)cc(O)cc3o2)cc1O,102
21,O=C(/C=C/c1ccc(O)cc1)c1ccc(O)cc1O,97.8
22,COc1ccc(-c2coc3cc(O)cc(O)c3c2=O)cc1,101

row,SMILES,inhibition [%]
1,NS(=O)(=O)c1nn2cc(-c3ccccc3)nc2s1,81.9
2,O=C(CCCCCN1C(=O)c2cccc3cccc(c23)C1=O)NO,104
3,c1ccc2sc(SNC3CCCCC3)nc2c1,23.2
4,CC(C)(C)C1CCc2c(sc(NC(=O)c3ccco3)c2C(=O)O)C1 (configuration not stated),73.7
5,NS(=O)(=O)c1cc2c(cc1Cl)N=C(CSCc1ccccc1)NS2(=O)=O,42.3
6,CCN(CC)C(=O)Nc1ccc(OCC(O)CNC(C)(C)C)c(C(C)=O)c1 (configuration not stated),27.1
7,O=C(N/N=C/c1ccccc1O)c1ccccc1O,107
8,C[C@@H]1CC(=O)c2c(ccc3c2C(=O)c2cccc(O)c2C3=O)C1,105
9,CN1CCCN=C1/C=C/c1cccs1,42
10,Cc1cc(Cl)ccc1OCCCC(=O)NO,96.5
11,CC(C)(C)c1ccc(C(=O)Nc2cn3cc(-n4ccnc4)ccc3n2)cc1,67.2
12,CC(=O)Oc1ccccc1C(=O)Nc1ncc([N+](=O)[O-])s1,110
13,Cc1cc(C)c(S(=O)(=O)Nc2cccc(C(F)(F)F)c2)c(C)c1,-5.7
14,N#Cc1c(O)c2c(-c3ccc(-c4ccccc4O)cc3)csc2[nH]c1=O,57.7
15,CN1[C@@H]2C[C@@H](O)C[C@H]1[C@@H]1O[C@@H]12,67.9
16,Cn1cc(/C=C2/C(=O)Nc3cccnc32)c2ccccc21,109
17,CC1(C)CNc2cc(NC(=O)c3cccnc3NCc3ccncc3)ccc21,78.2
18,COc1ccccc1OCC(O)COC(N)=O (configuration not stated),8.29
19,O=C1NC(=O)/C(=C/c2ccc(-c3ccc(F)cc3O)o2)S1,94.9
20,Nc1ncnc(Nc2ccc(Cl)cc2)n1,59.8
21,N#C/C(=C\c1ccc(O)c(O)c1)C(=O)Nc1ccccc1,58.9
22,O=C(/C=C/c1ccc(O)c(O)c1)OCCc1ccccc1,47.2

row,SMILES,inhibition [%]
1,Cc1cc(NCCO)nc(-c2ccc(Br)cc2)n1,64.4
2,O=C(CCCCCCNC(=O)c1cnc(N(c2ccccc2)c2ccccc2)nc1)NO,105
3,NS(=O)(=O)c1cc2c(cc1C(F)(F)F)NC(Cc1ccccc1)NS2(=O)=O (configuration not stated),36
4,CC(C)COC(=O)c1ccc(N)cc1,82.1
5,Cc1cc(O)c2c(=O)c3c(O)cc(O)c4c5c(O)cc(O)c6c(=O)c7c(O)cc(C)c8c1c2c(c34)c(c78)c65,66.5
6,O=C1C(Cl)=C(N2CCOCC2)C(=O)N1c1ccc(Cl)c(Cl)c1,83.8
7,O=C(NC1CC1)c1cc(-c2cccs2)on1,70.5
8,O=C(Nc1ccc2[nH]ccc2c1)c1ccccc1,86.3
9,O=C1Cc2c([nH]c3ccc(Br)cc23)-c2ccccc2N1,96.6
10,COc1ccc(N(C(=O)Oc2c(C)cccc2C)c2ccnc(Nc3ccc(N4CCN(C)CC4)cc3)n2)c(OC)c1,-5.43
11,CN1CCCN=C1/C=C/c1cccc(O)c1,53.6
12,O=C1OC2(c3cc(I)c(O)c(I)c3Oc3c2cc(I)c(O)c3I)c2c(Cl)c(Cl)c(Cl)c(Cl)c21,68.7
13,CCCCCCCCCCCCCCCC(=O)N[C@@H](CCC(=O)NCCCC[C@H](NC(=O)[C@H](C)NC(=O)[C@H](C)NC(=O)[C@H](CCC(N)=O)NC(=O)CNC(=O)[C@H](CCC(=O)O)NC(=O)[C@H](CC(C)C)NC(=O)[C@H](Cc1ccc(O)cc1)NC(=O)[C@H](CO)NC(=O)[C@H](CO)NC(=O)[C@@H](NC(=O)[C@H](CC(=O)O)NC(=O)[C@H](CO)NC(=O)[C@@H](NC(=O)[C@H](Cc1ccccc1)NC(=O)[C@@H](NC(=O)CNC(=O)[C@H](CCC(=O)O)NC(=O)[C@H](C)NC(=O)[C@@H](N)Cc1cnc[nH]1)[C@@H](C)O)[C@@H](C)O)C(C)C)C(=O)N[C@@H](CCC(=O)O)C(=O)N[C@@H](Cc1ccccc1)C(=O)N[C@H](C(=O)N[C@@H](C)C(=O)N[C@@H](Cc1c[nH]c2ccccc12)C(=O)N[C@@H](CC(C)C)C(=O)N[C@H](C(=O)N[C@@H](CCCNC(=N)N)C(=O)NCC(=O)N[C@@H](CCCNC(=N)N)C(=O)NCC(=O)O)C(C)C)[C@@H](C)CC)C(=O)O,15.4
14,CC(C)(C)c1[nH]cnc1/C=c1\[nH]c(=O)/c(=C/c2ccccc2)[nH]c1=O,80.7
15,COc1cc2nc(C3CC3)nc(N3CCN(c4ccccc4OC)CC3)c2cc1OC,56.3
16,O=C(Nc1ccc(O)cc1)c1ccccc1O,100
17,N#C/C(=C\c1ccc(O)c(O)c1)C(=O)NCCCc1ccccc1,33.8
18,COc1ccc(-c2nc3cc(C4=NNC(=O)CC4C)ccc3[nH]2)cc1 (configuration not stated),97.8
19,O=C(Nc1ccc([N+](=O)[O-])cc1Cl)c1cc(Cl)ccc1O,42.3
20,N=C(NCCC[C@H](N)C(=O)O)N[N+](=O)[O-],0.71
21,COc1ccc(-c2nc(N3CCOCC3)c3sc(CN(C)c4ncc(C(=O)NO)cn4)cc3n2)cn1,104
22,Cc1nc2ccc(-n3ncc(C(=O)c4cc5ccccc5[nH]4)c3N)cc2[nH]1,112

row,SMILES,inhibition [%]
1,Cn1ccc2cc(NC(=O)Nc3cccnc3)ccc21,50.6
2,OCCOCCN1CCN(C(c2ccccc2)c2ccc(Cl)cc2)CC1 (configuration not stated),-6.68
3,CCCCc1nc2cc(/C=C/C(=O)NO)ccc2n1CCN(CC)CC,83.5
4,c1cc(Nc2cc(C3CC3)n[nH]2)nc(Nc2ccc3[nH]cnc3c2)n1,66.6
5,O=C(/C=C/c1ccccc1)NCCO,50.5
6,O=C(Oc1ccccc1)c1ccccc1O,67.9
7,FC(F)(F)c1cc(NC(=S)Nc2ccc(Br)cc2-c2nnn[nH]2)cc(C(F)(F)F)c1,31.7
8,C[C@H](NCc1ccc(OCc2cccc(F)c2)cc1)C(N)=O,84.6
9,CCC(CC)(CC(=O)Nc1cccc(/C=C/c2nc(C3CCC3)cs2)c1)C(=O)O,36.2
10,O=C(NCc1ccc2c(c1)OCO2)c1c(Cl)cccc1Cl,17.4
11,CN1CCc2c(c3ccccc3n2Cc2ccc(C(=O)NO)cc2)C1,99.5
12,O=C(OCC(O)CO)c1ccccc1Nc1ccnc2cc(Cl)ccc12 (configuration not stated),83.6
13,O=c1c2ccccc2[se]n1-c1ccccc1,3.77
14,CN(C)Cc1c(C(=O)NCCOc2ccc(C(=O)NO)cc2)oc2ccccc12,102
15,Nc1ccc(/N=N/c2ccccc2)c(N)n1,106
16,Cc1cc(C)c(N)c(C#Cc2cccc(F)c2)n1,74.2
17,CC(C)OC(=O)Nc1cccc(Cl)c1,73
18,Cc1ccc(NC(=O)c2ccc(CN3CCN(C)CC3)cc2)cc1Nc1nc(-c2cccnc2)cs1,22.6
19,O=c1c2ccccc2oc2ccccc12,61.8
20,Cc1cc(C)c(/C=C2\C(=O)Nc3ccccc32)[nH]1,36.4
21,CC(=O)Oc1ccccc1C(=O)Nc1ccccc1,61.5

# From ChEMBL document CHEMBL4808148, “HDAC6 screening dataset using tau-based substrate in an enzymatic assay yields selective inhibitors and activators” (2021)
